“Also recorded” adds a separate entry of the source.
What was measured:
[1] = tested on: distamycin binding sites on end-labeled DNA fragment; assay: Footprinting of distamycin; details: in words
[2] = tested on: EcoRI site on end-labeled DNA fragment; assay: Footprinting of EcoRI; assay type: binding; details: in words
[3] = tested on: distamycin binding sites on end-labeled DNA fragment; details: comparison reagents; cited from earlier work
CT DNA = assay: Luminescence in presence of CT DNA; assay type: binding, calf
Description: While a linear relationship of the luminescence is observed for Ru(bpy)2 (dppz)^2+ in iso-propanol as a function of temperature this is not the behavior seen when the complex is bound to DNA. When the complex, Ru(bpy)2 (dppz)^2+ is bound to cal-thymus (CT) DNA (100 μM) under low salt conditions at 25 ° C. a biexponential lifetime is observed. A short component which is assigned to a surface interaction, and a long component which is assigned to an intercalated species. As is shown in Table 1, the short component remains relatively unchanged until 70 ° C. when there is an abrupt decrease in the lifetime to 45 ns at 85° C. […] Under these conditions the CT DNA melts and the observed lifetimes of the complexes are similar to those lifetimes measured with single stranded DNA. […] In fact there is an abrupt decrease in the quantum yield at the melting temperature at this salt concentration. This decrease in quantum yield may be explained thus: when the complex is bound to the double stranded form the quenching ability of H2 O is inhibited while at the melting temperature the single stranded form of DNA cannot protect the complex from quenching of H2 O and therefore the observed luminescence is not as intense.

[4] = tested on: poly d(GC).d(GC) B-form DNA; assay: Luminescence with poly d(GC).d(GC), B-form; assay type: binding
Description: (§1) FIG. 21A to 21C: Luminescent Enhancement of Ru(bpy)2 (dppz)^2+ with B and Z-form DNA a. Ru(bpy)2 (dppz)^2+ 10 μM in buffer R=50.0 mM NaCl, 5.0 mM Tris-OH, pH=7.0. b. Ru(bpy)2 (dppz)2 10 μM in buffer R, with poly d(GC) d(GC) 100 μM under conditions providing B-form DNA. c. Ru(bpy)2 (dppz)^2+ 10 μM in buffer R-L=20.0 mM NaCl, 2.0 mM Tris-OH, pH 7.0, Co(NH3)6^3+ 4μM., with poly d(GC) d(GC) 100 μM under conditions providing Z-form DNA. All λex =482 nm.
As expected, preparations of Ru(bpy)2(dppz)^2+ (10 μM) in buffer R(^9) and buffer R-L(^10) (pH=7.0) produced species that were nonluminescent solutions (FIG. 21a) (λirr =482 nm).

[5] = tested on: poly d(GC).d(GC) Z-form DNA; assay: Luminescence with poly d(GC).d(GC), Z-form; assay type: binding
Description: as §1
Preparations of Ru(bpy)2 (dppz)^2+ (10 μM) in buffer R^(40) and buffer R-L^(41) (pH 7.0) produced species that were nonluminescent solutions (FIG. 21a) (λirr =482 nm). […] Luminescent behavior such as this can be attributed to a highly intercalated species. This must be due to the complex being bound to the Z-form and not due to lower salt conditions (or added Co(NH3)6^3+) as the under the same Z-form producing conditions, calf thymus DNA produces the expected B-form luminescence.
An interesting twist to the luminescent properties of Ru(bpy)2 (dppz)^2+ is observed when this complex is bound to the left handed helix Z-form DNA. […] Luminescent behavior such as this can be attributed to a highly intercalated species. This must be due to the complex being bound to the Z-from nand not due to lower salt conditions (or added Co(NH3)6^3+) as the under the same Z-form producing conditions, calf thymus DNA produces the expected B-from luminescence.

poly d(AT).d(AT) = assay: Luminescence with poly d(AT).d(AT); assay type: binding; details: Buffer (50.0 mM NaCl), 25
poly r(AU).r(AU) = assay: Luminescence with poly r(AU).r(AU); assay type: binding
Text: It appears then that luminescence is observed only when the ruthenium complex is intercalated in (or perhaps otherwise protected by) the nucleic acid structure. […] The relative luminescence of ruthenium complexes in the presence of various helical DNA's under varying conditions is shown in Table 16.

B-form DNA = assay: Steady state luminescence polarization with B-form DNA; assay type: binding; details: 100 μM DNA
Description: (§2) FIG. 22 Steady State Polarization of Ru(bpy)2 (dppz)^2+ with B and Z-form DNA Under the conditions that provide B-form (lower curve) DNA the highest measured polarization is 0.15 with a limiting polarization 0.10. Under the conditions that provide Z-DNA (upper curve) the highest polarization is 0.35 with a limiting polarization of 0.14. Ru(bpy)2 (dppz)^2+ 10 μM, poly d(GC) d(GC) 100 μM, λex =482 nm.
To further test the extent of intercalation of this complex a study of the steady state luminescence polarization of the complex bound to each form of DNA was made. These experiments give information on how rigidly the complex is held by the DNA. […] This reflects a situation where the complex is completely bound to the right-handed helix. As the concentration of Ru(bpy)2 (dppz)^2+ increases, the polarization decreases to limiting value (0.10) at a complex:base pair ratio of 1:10.
To further test the extent of intercalation of this complex we studied the steady state luminescence polarization of the complex bound to each form of DNA. These experiments give information on how rigidly the complex is held by the DNA. […] This reflects a situation where the complex is completely bound to the right-handed helix. As the concentration of Ru(bpy)2 (dppz)^2+ increases, the polarization decreases to a limiting value (0.10) at a complex: base pair rtio of 1:10.

Z-form DNA = assay: Steady state luminescence polarization with Z-form DNA; assay type: binding
Description: as §2
Similarly, when 1 μM Ru(bpy)2 (dppz)^2+ is titrated into poly d(GC).d(GC) (100 μM) in the Z-form, luminescence polarization is also observed, but in this case the value is 0.35, over double the value found with the analogous solution with B-form. […] As more complex is added the observed polarization reduces to a limiting value of 0.14, still higher than the analogous sample with B-form, thus further confirming the Z-form is a more rigid structure than the B-form.

[6] = tested on: electrophoresed DNA in agarose gel; assay: Staining of DNA in agarose gels; details: in words
Text: One interesting application is the binding of this complex to DNA that has been electrophoresed in a agarose gel.

calf thymus DNA = assay: Equilibrium dialysis of racemic complexes against calf thymus DNA (Scatchard, dialysate CD); assay type: binding; details: in words
Description: Equilibrium Dialysis: Equlibrium dialysis of the reacemic metal complexes was perforemd against calf-thymus DNA using procedures described previously. (74) The buffer used was 5 mM Tris, 50 mM NaCl at pH 7.5. Samples were agitated on a shaker bath during equilibration which occurred after three to five days, as determined by control samples containing no DNA. After equilibration, volumes of liquid inside and outside the dialysis bags were determined (approximately 1 and 3 mls, respectively) and circular dichroism of the dialysate was meaxured on a Jasco J-40 spectropolarimeter. Final ruthenium concentration inside and outside the bags were measured by visible absorbance. Data anaylsis was performed on a VAX-780 using non-linear least squares analysis.
Equilibrium Dialysis: Equilibrium binding constants for the metal complexes with DNA may be determined classically by equilibrium dialysis. Calf thymus DNA was dialyzed against the series of mixed ligand complexes using a broad range of ruthenium concentrations. […] The results have been plotted according to Scatchard (88), where r is the ratio of bound metal to DNA-phosphate concentration, and cf is the concentration of free metal complex. The data were fit by non-linear least squares analysis to the McGhee and von Hippel equation (8945) governing random non-cooperative binding to a lattice,
where r is the ratio of bound concentration of ruthenium to the concentration of DNA-phosphate, cf is the concentration of ruthenium free in soltuion, Kb the intrinsic binding constant, and the integer /, which measures the degree of anti-cooperativeity, is the size of a binding site in base pairs. The curves shown reflect the best fit after variation of two parameters: the intrinsic binding constant, Kb, and binding stie size, /. For those complexes were cooperatively was observed, the equation (89) incorporating a cooperativity parameter was used.
Equilibrium dialysis experiments additionally offer the opportunity to examine any enantiomeric selectivities associated with binding. After dialysis of the DNA against the racemic mixture, optical activity observed in the dialysate refelects an enrichment in the dialysate in the less favored enantiomer. For most of the complexes, optical activity was found in the dialysate. Values for the extent of enantiomeric selectivity could not be quanitated in the absence of determinations of DE and assignments of absolute configuration. Assuming that the signs of the circular chroism in the ultraviolet ligand bands are the same for the these ligands as that for the parent phenanthroline complex, (90) we have assigned the absolute configuration of these complexes by comparison to spectra for enantiomers of Ru(phen)3^2+ and have compared levels of enantioselectivity qualitatively through measurements of circular dichroic intensity per rutheium bound. Based upon these assumptions, we find enantionmeric selectivities for the polyridyl complexes to reflect an enrichment in the isomer in the dialysate and the preferential binding of the isomer to the right-handed DNA. This observation is consistent with the preferential intercalation of isomers found earlier for Ru(phen)3^2+ in right-handed B-DNA. (63) We may also compare relative enantioselectivities for different ancillary ligands. […] The same comparison may be seen qualitatively between Ru(phen)2 DIP^2+ and Ru(bpy)2 DIP^2+.

Stability / handling = assay type: physicochemical; details: in words
pBR322 DNA = details: reference intercalator; cited from earlier work
[7] = 10 μM complex, 100 μM DNA, buffer R-L

Structure (SMILES): [Cu+].c1cnc2c(c1)ccc1cccnc12.c1cnc2c(c1)ccc1cccnc12 [Cu(phen)2 +]
- footprint quality, distamycin [1]: lacks the necessary sequence neutrality
- footprint quality, EcoRI [2]: failed to footprint the protein
- 3'-shift of distamycin footprint [3]: 2-3 pair

Structure (SMILES): [Ru+2].c1ccc(-c2ccccn2)nc1.c1ccc(-c2ccccn2)nc1.c1ccc2nc3c4cccnc4c4ncccc4c3nc2c1 [Ru(bpy)2 (dppz)^2+]
- Rel. Lumi. (CT DNA; Buffer (50.0 mM NaCl), 25): 0.55
- Rel. Lumi. (CT DNA; Buffer (50.0 mM NaCl), 75): 0.53
- Rel. Lumi. (CT DNA; Buffer** (0.5 mM NaCl), 25): 0.61
- Rel. Lumi. (CT DNA; Buffer** (0.5 mM NaCl), 35): 0.06
- Rel. Lumi. (CT DNA; Buffer** (0.5 mM NaCl), 45): 0.59
- Rel. Lumi. (CT DNA; Buffer** (0.5 mM NaCl), 55): 0.55
- Rel. Lumi. (CT DNA; Buffer** (0.5 mM NaCl), 70): 0.47
- Rel. Lumi. (CT DNA; Buffer** (0.5 mM NaCl), 90): 0.23
- luminescence with B-form DNA ([4]; 10 μM complex, 100 μM DNA): highly luminescent
- luminescence λmax with B-form DNA ([4]; 10 μM complex, 100 μM DNA): 628 nm
- Rel. Lumi. ([4]; Buffer (50.0 mM NaCl), poly d(GC).d(GC), 25): 0.72
- luminescence with Z-form DNA [5, 7]: highly luminescent
- luminescence λmax with Z-form DNA [5, 7]: 640 nm
- effect on Z to B transition ([5]; circular dichroism, over hours): does not cause the Z to B transition
- Rel. Lumi. (poly d(AT).d(AT)): 0.68
- luminescence with poly r(AU).r(AU) (poly r(AU).r(AU); 10 μM complex, 100 μM RNA, buffer R): no luminescence
- Rel. Lumi. (poly r(AU).r(AU); Buffer (50.0 mM NaCl), 25): 0.01
- highest luminescence polarization, B-form (B-form DNA; 1 μM probe): 0.15
- limiting luminescence polarization, B-form (B-form DNA): 0.10
- highest luminescence polarization, Z-form (Z-form DNA; 1 μM complex, 100 μM DNA): 0.35
- limiting luminescence polarization, Z-form (Z-form DNA; 100 μM DNA): 0.14
- relative strength of binding, Z-form vs B-form (Z-form DNA; in words): binds better to the Z-form; also recorded: held more rigidly by Z-form than by the analogous B-form
- staining of DNA in agarose gels [6]: no background luminescence from the complex bound to agarose

Structure (SMILES): N=C1C(=N)c2ccccc2-c2ccccc21.N=C1C(=N)c2ccccc2-c2ccccc21.N=C1C(=N)c2ccccc2-c2ccccc21.[Ru+2] [Ru(phi)3^2+]
- aggregation in solution (calf thymus DNA): extensive aggregation
- stability (Stability / handling): does not decompose upon exposure to air or by continuous irradiation with visible light

Structure (SMILES): CC[n+]1c(-c2ccccc2)c2cc(N)ccc2c2ccc(N)cc21 [ethidium, reference compound]
- staining of DNA in agarose gels [6]: found to stain DNA imbedded in the agarose gels
- Unwinding Angle (pBR322 DNA): 26 °

Reference: US5157032A, “Mixed ligand complexes and uses thereof as binding agents and probes to DNA” (The Trustees of Columbia University In The City of New York, priority 1990, dated 1992)
